Reference: patent publication US7432296B2, “Pharmaceutical formulations containing substituted 2-aryl-aminoacetic acid compounds and/or substituted 2-heteroaryl-aminoacetic acid compounds” (Gruenenthal GmbH, priority 2003, dated 2008)
Where a name gives a salt, the structure may show the parent alone.

How the values were obtained:
[1] = biological target: T1, glycine binding site of the NMDA receptor channel (Rattus norvegicus, UniProt P35439); assay: Receptor binding study (glycineB binding site of the NMDA receptor channel), displacement of (3H)-MDL 105.519; details: 10 μM of compound, rat brain membrane homogenate (cortex and hippocampus); for inhibition at 10 µM: read-out: Inhibition % (percentage fraction of bound radioactive ligand displaced from its specific binding)
T1 construct: from tissue; host or cells: rat brain cortex and hippocampus membrane homogenate (male Wistar rats)
Method: (a) Receptor Binding Study (GlycineB Binding Site of the NMDA Receptor Channel)
The affinity of the compounds of the general formula I used according to the invention for the glycine binding site of the NMDA receptor channel is determined using brain membrane homogenates (homogenate of cortex and hippocampus area from the brain of male rats, Wistar strain), as for example described in B. M. Baron, B. W. Siegel, B. L. Harrison, R. S. Gross, C. […] The corresponding literature description is hereby introduced as a reference and is deemed to be part of the disclosure.
To this end, the cortex and hippocampus are dissected out of freshly harvested rat brains and homogenised with ice cooling in 5 mmol/l of TRIS-acetate buffer, 0.32 mol/l of sucrose, pH 7.4 (10 ml/g fresh weight) using a Potter homogeniser (Braun/Melsungen, 10 piston strokes at 500 rpm) and then centrifuged for 10 minutes at 1,000 g and 4° C. The first supernatant is collected and the sediment again homogenised with ice cooling with 5 mmol/l of tris-acetate buffer, 0.32 mol/l of sucrose, pH 7.4 (5 ml/g of original fresh weight) with the Potter homogeniser (10 piston strokes at 500 rpm) and centrifuged for 10 minutes at 1,000 g and 4° C. The resultant supernatant is combined with the supernatant from the first centrifugation and centrifuged at 17.000 g for 20 minutes at 4° C. The supernatant after this centrifugation is discarded and the membrane sediment resuspended with 5 mmol/l of TRIS-acetate buffer, pH 8.0 (20 ml/g of original fresh weight) and homogenised with 10 piston strokes at 500 rpm.
The membrane homogenate is then incubated for 1 hour at 4° C. and centrifuged for 30 minutes at 50,000 g and 4° C. The supernatant is discarded and the centrifuge tubes containing the membrane sediment are sealed with Parafilm and frozen for 24 hours at −20° C. On the following day, the membrane sediment is thawed and resuspended with ice-cold 5 mmol/l TRIS-acetate buffer, 0,1% saponin (wt./vol.), pH 7.0 (10 ml/g of original fresh weight) and homogenised with 10 piston strokes at 500 rpm and then centrifuged for 20 minutes at 50.000 g and 4° C. The resultant supernatant is discarded and the sediment resuspended in a small volume with 5 mmol/l of TRIS-acetate buffer, pH 7.0 (approx. 2 ml/g of original fresh weight) and again homogenised with 10 piston strokes at 500 rpm. After determination of the protein content, the membrane homogenate is adjusted with 5 mmol/l TRIS-acetate buffer, pH 7.0, to a protein concentration of 10 mg of protein/ml and frozen in aliquots until used for testing.
The receptor binding test is performed by thawing aliquots, diluting them 1:10 with 5 mmol/l TRIS-acetate buffer, pH 7.0, homogenising them with ice-cooling with 10 piston strokes at 500 rpm with the Potter homogeniser (10 piston strokes at 500 rpm) and centrifuging them for 60 minutes at 55,000 g at 4° C. The supernatant is decanted and the membrane sediment adjusted with ice-cold 50 mmol/l TRIS-acetate buffer, pH 7.0, to a protein concentration of 1 mg/ml and again homogenised with 10 piston strokes at 500 rpm and kept in suspension in an ice bath with stirring on a magnetic stirrer. This membrane homogenate is used in the receptor binding test in a quantity of 100 µl per 1 ml batch (0.1 mg of protein/ml in the final batch). […] The level of nonspecific binding is determined in the presence of 1 mmol/l of glycine.
In further batches, the compounds used according to the invention are added in concentration series and the displacement of the radioactive ligand from its specific binding at the glycine-binding site of the NMDA receptor channel is determined. Each of the triplicate batches is incubated for 120 minutes at 4° C. and then harvested by filtration through glass fibre filter mats (GF/B) in order to determine the radioactivity bound to the membrane homogenate.

[2] = test system: formaldehyde-induced nociception; assay: Formaldehyde test (mouse), second (late) phase; format: in vivo; details: male NMRI mice, percentage change of the control
Method: (b) Formaldehyde Test (Mouse)
The investigations for determining the antinociceptive action of the substituted 2-arylaminoacetic acid compounds and/or substituted 2-heteroarylaminoacetic acid compounds of the above general formula I used according to the invention are carried out by the formaldehyde test on male albino mice (NMRI, 25-35 g, Iffa, Credo, Belgium).
In the formaldehyde test, a distinction is drawn between the first (early) phase (0-15 min after formaldehyde injection) and the second (late) phase (15-60 min after formaldehyde injection) (D. Dubuisson et al., Pain, vol. 4, pp. 161-174 (1977)). The early phase, being a direct response to the formaldehyde injection, is considered to be a model of acute pain, while the late phase is considered to be a model of persistent (chronic) pain (T. J. Coderre et al., Pain, vol. 52, pp. 259-285 (1993)). The corresponding literature descriptions are hereby introduced as a reference and are deemed to be part of the disclosure. […]
For the investigation period in the second (late) phase of the formaldehyde test, nociceptive behaviour is continuously recorded by observing the animals. […] On the basis of the quantification of the pain behaviour, action in the formaldehyde test is determined as a percentage change of the control. […]

Row | inhibition at 10 µM [1] [%] | SMILES | further results
1 | 33 | O=C(O)C(Nc1cc(Cl)cc(Cl)c1)c1cccc2c1sc1ccccc12 (centres unmarked) [Example 2, (Dibenzothiophen-4-yl)-(3,5-dichlorophenylamino)acetic acid] | 
2 |  | CSc1ccc(C(Nc2cc(Cl)cc(Cl)c2)C(=O)O)cc1 (centres unmarked) [Example 6, (3,5-Dichlorophenylamino)-(4-methylsulfanylphenyl)acetic acid] | Inhibition (at dose) ([2]; at 46.4 mg/kg): 31% (at 46.4 mg/kg); Inhibition % (percentage fraction of bound radioactive ligand displaced from its specific binding) [1]: 87%
3 | 38 | O=C(O)C(Nc1cc(Cl)cc(Cl)c1)c1cccc2c1Oc1ccccc1S2 (centres unmarked) [Example 10, (3,5-Dichlorophenylamino)-(phenoxathiin-4-yl)acetic acid, sodium salt] | 
4 | 25 | O=C(O)C(Nc1cc(Cl)cc(Cl)c1)c1cccc2c1Sc1ccccc1S2 (centres unmarked) [Example 11, (3,5-Dichlorophenylamino)-(thianthren-1-yl)acetic acid, sodium salt] | 
5 | 39 | CSc1ccccc1C(Nc1cc(Cl)cc(Cl)c1)C(=O)[O-].[Na+] (centres unmarked) [Example 12, (3,5-Dichlorophenylamino)-(2-methylsulfanylphenyl)acetic acid, sodium salt] | Inhibition (at dose) ([2]; at 31.6 mg/kg): 66% (at 31.6 mg/kg)
6 | 83 | CSc1ccc(C(Nc2cc(Cl)cc(Cl)c2)C(=O)O)cc1 (centres unmarked) [Example 13, (3,5-Dichlorophenylamino)-(4-methylsulfanylphenyl)acetic acid, sodium salt] | 
